From patent publication US9079974B2, “GH-RH analogs with potent agonistic effects” (The University of Miami, priority 2011, dated 2015)
Entries after “also recorded” stand apart in the source; their conditions may differ. Square brackets hold non-standard residues; d marks the D form. Peptide text beside a SMILES is read from it. * marks the point of attachment. Phe(F5) = N[C@@H](Cc1c(F)c(F)c(F)c(F)c1F)C(=O)O; Desaminotyrosyl = O=C(CCc1ccc(O)cc1)*; NMeY = CN[C@@H](Cc1ccc(O)cc1)C(=O)O; Agmatine = N=C(N)NCCCCN*; Nle = CCCC[C@H](N)C(=O)O; Orn = NCCC[C@H](N)C(=O)O; Abu = CC[C@H](N)C(=O)O; Aoc = NCCCCCCCC(=O)O; GABA = NCCCC(=O)O

Columns and labels:
GHRH receptor [1] = biological target: T1, GHRH receptor (Homo sapiens, UniProt Q02643); assay: GHRH receptor binding, [His1,125I-Tyr10,Nle27]hGHRH(1-32)NH2 ligand competition, human pituitary membrane homogenates (Table 6); conditions: [His1,125I-Tyr10,Nle27]hGHRH(1-32)NH2, human pituitary membranes
T1 construct: Normal human pituitaries were purchased from the National Hormone and Peptide Program; tissue National Hormone and Peptide Program (A. F. Parlow); host or cells: normal human pituitary, membrane fraction
T1 sequence (Q02643 23-423): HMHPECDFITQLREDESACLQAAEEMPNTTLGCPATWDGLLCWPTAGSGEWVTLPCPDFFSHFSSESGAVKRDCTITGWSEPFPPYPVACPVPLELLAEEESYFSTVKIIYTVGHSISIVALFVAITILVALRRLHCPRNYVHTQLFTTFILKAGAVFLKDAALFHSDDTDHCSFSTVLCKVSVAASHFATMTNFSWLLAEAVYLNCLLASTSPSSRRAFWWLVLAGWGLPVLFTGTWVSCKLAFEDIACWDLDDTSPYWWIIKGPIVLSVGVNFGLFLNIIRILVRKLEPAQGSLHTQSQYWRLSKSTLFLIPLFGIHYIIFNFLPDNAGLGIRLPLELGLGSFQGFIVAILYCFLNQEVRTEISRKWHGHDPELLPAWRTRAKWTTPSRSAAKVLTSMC
Method: Receptor binding assay Ligand competition assay with ^125I-labeled [His^1, Nle^27]hGH-RH(1-32)-NH2 was used to determine the binding affinities of the novel hGH-RH agonists to membrane receptors of rat anterior pituitary cells. The methods used have been described in detail (Halmos G, et al. Receptor 3: 87-97, 1993), here by incorporated by reference. Briefly, radioidonated [His^1, Nle^27]hGH-RH(1-32)-NH2 is prepared by the chloramines-T method. […] IC50 is the dose of the tested peptides causing 50% inhibition of specific binding to receptors.
(§1) Preparation of human pituitary membrane fraction and receptor binding of GHRH agonists were performed as previously described, by using a sensitive in vitro ligand competition assay based on binding of ^125I-labeled [His^1, Nle^27]hGHRH(1-32)NH2 to human pituitary membrane homogenates. Normal human pituitaries were purchased from the National Hormone and Peptide Program (A. F. Parlow, Los Angeles, County Harbor—UCLA Medical Center, Torrance, Calif.).

GHRH receptor [2] = biological target: T1, GHRH receptor; assay: GHRH receptor binding, 125I-labeled JV-1-42 ligand competition, human pituitary membrane homogenates (Table 7); conditions: for IC50: 125I-labeled JV-1-42, human pituitary membranes
Method: as §1, with “JV-1-42” for “[His^1, Nle^27]hGHRH(1-32)NH2”, “Harbor-UCLA” for “Harbor—UCLA”

GH release = assay: In vivo GH release after subcutaneous administration; conditions: rat, s.c.
Method: Blood samples are taken from the jugular vein; 5, 15 and 30 minutes or only 15 and 30 minutes after the injection. The blood samples are centrifuged, plasma is removed and the GH level is measured by ELISA. The results are summarized in terms of potency in Table 9.

`CCCC[C@H](NC(=O)[C@@H](NC(=O)[C@H](CC(=O)O)NC(=O)[C@H](CCC(N)=O)NC(=O)[C@H](CC(C)C)NC(=O)[C@H](CC(C)C)NC(=O)[C@H](CCCN)NC(=O)[C@H](CCCNC(=N)N)NC(=O)[C@H](C)NC(=O)[C@H](CO)NC(=O)[C@H](CC(C)C)NC(=O)[C@H](CCC(N)=O)NC(=O)[C@H](CC)NC(=O)[C@H](CC(C)C)NC(=O)[C@@H](NC(=O)[C@H](CCCN)NC(=O)[C@H](CCCNC(=N)N)NC(=O)[C@H](Cc1ccc(O)cc1)NC(=O)[C@H](CO)NC(=O)[C@H](CC(N)=O)NC(=O)[C@@H](NC(=O)[C@H](Cc1ccccc1)NC(=O)[C@@H](NC(=O)[C@H](C)NC(=O)[C@H](CC(=O)O)NC(=O)[C@H](C)NC(=O)CCc1ccc(O)cc1)[C@@H](C)CC)[C@@H](C)O)C(C)C)[C@@H](C)CC)C(=O)N[C@@H](CC(=O)O)C(=O)NCCCCNC(=N)N` [JI-34, reference compound] (Desaminotyrosyl-ADAIFTNSYR[Orn]VL[Abu]QLSAR[Orn]LLQDI[Nle]D-Agmatine; N-terminus and C-terminus assumed) was tested, and the IC50 (GHRH receptor [1]) was 1.37 nM.
In the case of `CCCC[C@H](NC(=O)[C@@H](NC(=O)[C@H](CC(=O)O)NC(=O)[C@H](CCC(N)=O)NC(=O)[C@H](CC(C)C)NC(=O)[C@H](CC(C)C)NC(=O)[C@H](CCCN)NC(=O)[C@H](CCCNC(=N)N)NC(=O)[C@H](C)NC(=O)[C@H](CO)NC(=O)[C@H](CC(C)C)NC(=O)[C@H](CCC(N)=O)NC(=O)[C@H](CC)NC(=O)[C@H](CC(C)C)NC(=O)[C@@H](NC(=O)[C@H](CCCN)NC(=O)[C@H](CCCNC(=N)N)NC(=O)[C@H](Cc1ccc(O)cc1)NC(=O)[C@H](CO)NC(=O)[C@@H](NC(=O)[C@@H](NC(=O)[C@H](Cc1ccccc1)NC(=O)[C@@H](NC(=O)[C@H](C)NC(=O)[C@H](CC(=O)O)NC(=O)[C@H](C)NC(=O)CCc1ccc(O)cc1)[C@@H](C)CC)[C@@H](C)O)[C@@H](C)O)C(C)C)[C@@H](C)CC)C(=O)N[C@@H](CC(=O)O)C(=O)NCCCCNC(=N)N` [JI-36, reference compound] (Desaminotyrosyl-ADAIFTTSYR[Orn]VL[Abu]QLSAR[Orn]LLQDI[Nle]D-Agmatine; N-terminus and C-terminus assumed), the IC50 (GHRH receptor [1]) is reported as 1.82 nM.
With `CCCC[C@H](NC(=O)[C@@H](NC(=O)[C@H](CC(=O)O)NC(=O)[C@H](CCC(N)=O)NC(=O)[C@H](CC(C)C)NC(=O)[C@H](CC(C)C)NC(=O)[C@H](CCCN)NC(=O)[C@H](CCCNC(=N)N)NC(=O)[C@H](C)NC(=O)[C@H](CO)NC(=O)[C@H](CC(C)C)NC(=O)[C@H](CCC(N)=O)NC(=O)[C@H](CC)NC(=O)[C@H](CC(C)C)NC(=O)[C@@H](NC(=O)[C@H](CCCN)NC(=O)[C@H](CCCNC(=N)N)NC(=O)[C@H](Cc1ccc(O)cc1)NC(=O)[C@H](CO)NC(=O)[C@H](CCC(N)=O)NC(=O)[C@@H](NC(=O)[C@H](Cc1ccccc1)NC(=O)[C@@H](NC(=O)[C@H](C)NC(=O)[C@H](CC(=O)O)NC(=O)[C@@H](C)NC(=O)CCc1ccc(O)cc1)[C@@H](C)CC)[C@@H](C)O)C(C)C)[C@@H](C)CC)C(=O)N[C@@H](CC(=O)O)C(=O)N[C@@H](CCCNC(=N)N)C(=O)NCCCCCCCC(N)=O` [Peptide P-21304, [Dat^1, D-Ala^2, Gln^8, Orn^12, Abu^15, Orn^21, Nle^27, Asp^28, Amc^30]hGH-RH(1-30)NH2] (Desaminotyrosyl-[dA]DAIFTQSYR[Orn]VL[Abu]QLSAR[Orn]LLQDI[Nle]DR[Aoc]-NH2) the IC50 (GHRH receptor [1]) was 0.08 nM.
In the case of `CCCC[C@H](NC(=O)[C@@H](NC(=O)[C@H](CC(=O)O)NC(=O)[C@H](CCC(N)=O)NC(=O)[C@H](CC(C)C)NC(=O)[C@H](CC(C)C)NC(=O)[C@H](CCCN)NC(=O)[C@H](CCCNC(=N)N)NC(=O)[C@H](C)NC(=O)[C@H](CO)NC(=O)[C@H](CC(C)C)NC(=O)[C@H](CCC(N)=O)NC(=O)[C@H](CC)NC(=O)[C@H](CC(C)C)NC(=O)[C@@H](NC(=O)[C@H](CCCN)NC(=O)[C@H](CCCNC(=N)N)NC(=O)[C@H](Cc1ccc(O)cc1)NC(=O)[C@H](CO)NC(=O)[C@H](CC(N)=O)NC(=O)[C@@H](NC(=O)[C@H](Cc1ccccc1)NC(=O)[C@@H](NC(=O)[C@H](C)NC(=O)[C@H](CC(=O)O)NC(=O)[C@@H](C)NC(=O)[C@H](Cc1ccc(O)cc1)NC)[C@@H](C)CC)[C@@H](C)O)C(C)C)[C@@H](C)CC)C(=O)N[C@@H](CO)C(=O)N[C@@H](CCCNC(=N)N)C(=O)NCCCC(N)=O` [Peptide P-25501, [N—Me-Tyr^1, D-Ala^2, Orn^12, Abu^15, Orn^21, Nle^27, Gab^30]hGH-RH(1-30)NH2] (H-[NMeY][dA]DAIFTNSYR[Orn]VL[Abu]QLSAR[Orn]LLQDI[Nle]SR[GABA]-NH2), the IC50 (GHRH receptor [2]) is reported as 1.07 nM and the “GH response after subcutaneous administration (in words)” value (from here on “GH response”) (GH release) is reported as “unusually high responses; also recorded: especially greater growth hormone levels than hGH-RH or JI-38”.
`CCCC[C@H](NC(=O)[C@@H](NC(=O)[C@H](CC(=O)O)NC(=O)[C@H](CCC(N)=O)NC(=O)[C@H](CC(C)C)NC(=O)[C@H](CC(C)C)NC(=O)[C@H](CCCN)NC(=O)[C@H](CCCNC(=N)N)NC(=O)[C@H](C)NC(=O)[C@H](CO)NC(=O)[C@H](CC(C)C)NC(=O)[C@H](CCC(N)=O)NC(=O)[C@H](CC)NC(=O)[C@H](CC(C)C)NC(=O)[C@@H](NC(=O)[C@H](CCCN)NC(=O)[C@H](CCCNC(=N)N)NC(=O)[C@H](Cc1ccc(O)cc1)NC(=O)[C@H](CO)NC(=O)[C@H](CC(N)=O)NC(=O)[C@@H](NC(=O)[C@H](Cc1c(F)c(F)c(F)c(F)c1F)NC(=O)[C@@H](NC(=O)[C@H](C)NC(=O)[C@H](CC(=O)O)NC(=O)[C@@H](C)NC(=O)[C@H](Cc1ccc(O)cc1)NC)[C@@H](C)CC)[C@@H](C)O)C(C)C)[C@@H](C)CC)C(=O)N[C@@H](CC(=O)O)C(=O)N[C@@H](CCCNC(=N)N)C(=O)NC` [Peptide P-27404, [N—Me-Tyr^1, D-Ala^2, Fpa5^6, Orn^12, Abu^15, Orn^21, Nle^27, Asp^28]hGH-RH(1-29)NH—CH3] (H-[NMeY][dA]DAI[Phe(F5)]TNSYR[Orn]VL[Abu]QLSAR[Orn]LLQDI[Nle]DR-NHMe) was tested, and the IC50 (GHRH receptor [2]) was 0.87 nM, the “Relative affinity (Binding potency) vs JI-38” value (GHRH receptor [2]; relative to JI-38 = 1) was 5.00 and the “GH response” value (GH release) was “unusually high responses; also recorded: especially greater growth hormone levels than hGH-RH or JI-38”.
`CCCC[C@H](NC(=O)[C@@H](NC(=O)[C@H](CC(=O)O)NC(=O)[C@H](CCC(N)=O)NC(=O)[C@H](CC(C)C)NC(=O)[C@H](CC(C)C)NC(=O)[C@H](CCCN)NC(=O)[C@H](CCCNC(=N)N)NC(=O)[C@H](C)NC(=O)[C@H](CO)NC(=O)[C@H](CC(C)C)NC(=O)[C@H](CCC(N)=O)NC(=O)[C@H](CC)NC(=O)[C@H](CC(C)C)NC(=O)[C@@H](NC(=O)[C@H](CCCN)NC(=O)[C@H](CCCNC(=N)N)NC(=O)[C@H](Cc1ccc(O)cc1)NC(=O)[C@H](CO)NC(=O)[C@H](CC(N)=O)NC(=O)[C@@H](NC(=O)[C@H](Cc1ccccc1)NC(=O)[C@@H](NC(=O)[C@H](C)NC(=O)[C@H](CC(=O)O)NC(=O)[C@@H](C)NC(=O)[C@H](Cc1ccc(O)cc1)NC)[C@@H](C)CC)[C@@H](C)O)C(C)C)[C@@H](C)CC)C(=O)N[C@@H](CC(=O)O)C(=O)N[C@@H](CCCNC(=N)N)C(=O)NC` [Peptide P-27409, [N—Me-Tyr^1, D-Ala^2, Orn^12, Abu^15, Orn^21, Nle^27, Asp^28]hGH-RH(1-29)NH—CH3] (H-[NMeY][dA]DAIFTNSYR[Orn]VL[Abu]QLSAR[Orn]LLQDI[Nle]DR-NHMe) was tested, and the IC50 (GHRH receptor [2]) was 1.06 nM and the “GH response” value (GH release) was “unusually high responses; also recorded: especially greater growth hormone levels than hGH-RH or JI-38”.
